Assay [1] addresses methionine aminopeptidase 2. Conditions: cited from earlier work.
The next assay deals with histone deacetylases. On the set-up: method as in PMID 22047054. Conditions: cited from earlier work.
For the next assay, the target named is antigen 85 complex. The following applies: antigen 85 complex of Mycobacterium tuberculosis; cited from earlier work.
Assay [2] relates to urease in living cells of P. mirabilis PCM 543. Kind of assay: Inhibition of ureolysis in whole P. mirabilis cells in PBS buffer (nongrowth conditions). The following applies: Proteus mirabilis, read-out: IC50 (PBS buffer).
Another assay concerns the target glutamate dehydrogenase. The following applies: cited from earlier work.
Assay [3] has as its target bacterial thioredoxin reductase, Bacillus anthracis. The following applies: cited from earlier work.
Assay [4] relates to urease in living cells of P. mirabilis PCM 543. Kind of assay: Inhibition of ureolysis in whole P. mirabilis cells in artificial urine model. Conditions: Proteus mirabilis, read-out: IC90 (urine model).
For assay [5], the target named is Sporosarcina pasteurii urease (Sporosarcina pasteurii, UniProt P41020). Kind of assay: Inhibition of purified S. pasteurii urease (Ki; phenol-hypochlorite/Berthelot ammonia assay). Conditions: for mechanism of inhibition: S. pasteurii urease, Lineweaver-Burk plots / reaction progress curves. In kind it is biochemical. The procedure:
The values of kinetic parameters ( and KM
vmax) of the purified enzyme were determined by fitting the initial reaction velocities measured in a range of urea concentrations to the Michaelis-Menten equation by nonlinear regression. The values […]
Enzymatic reactions were carried out in 3 mM phosphate buffer pH 7.5 at 37 °C. The kinetic parameters of urease in the noninhibited reaction ( and ) were obtained by measuring the Kmvmax […]
activity was defined as the amount of enzyme required to produce 1 µM ammonia per min under […]
S2.1. Inhibition studies.
S. pasteuriipM urease in assay mixtures (200 μL total volume) containing increasing concentrations […]
The values were calculated using the appropriate equations in Ki the GraphPad Prism 5 software. The inhibition mechanism was determined using Lineweaver-Burk plots after testing at least five inhibitor concentrations in the range depending on their inhibitory strength (exemplified in Figure S26).
S2.2. Inhibition studies. […]
and 52), ammonia concentration versus time, for urea hydrolysis catalyzed by S. pasteurii urease in the absence and presence of inhibitors were performed in standard assay mixtures at a single urea concentration (final concentration 25 mM) and at different inhibitor concentrations according to their inhibitory strength. Enzymatic hydrolysis of urea was initiated by adding […] of urease solution […]
min in samples taken from reaction mixtures at set time intervals. The reaction mixtures were stirred throughout the measurement period. The nonlinear reaction progress curves with time-dependent inhibitors of urease (for the nonincubated reaction and under conditions: [I]0 ≫ [E] 0) were described using the integrated equation: , (where is the concentration [P]=vt+(v+v)(1―e―kappt)1P […]
of the reaction product formed at time t, which is the reaction time, and are the reaction initial vivs and steady-state rates, respectively, and is the apparent first-order rate constant for the kapp interconversion between and ). […] The vivs […]
equilibrium dissociation constants of the initial and the final enzyme conformation complex EI EI ∗ […]
is the Michaelis-Menten constant, maximum rate of enzyme in a noninhibited reaction, vmax S and I are substrate and inhibitor concentration). The mechanism of inhibitor binding was determined using steady-state kinetic measurements (Figures S27 and S28). […]
pM) was pre-incubated with increasing inhibitor concentrations in separate aliquots of reaction buffer prior to the initiation of the reaction by urea incorporation at a concentration ranging from 1 to 60 mM. The incubation time was different for the assayed inhibitors, depending on when equilibrium was achieved between enzyme , inhibitor and enzyme-inhibitor complexes ( and : (E)(I)EI EI ∗ E + I ↔EI ↔ EI ∗ ) . The values were calculated using the appropriate equations implemented in Ki the GraphPad Prism 5 software. The inhibitors were dissolved in water or DMF (the solvent was […]
Urease activity was determined using the […]
run in triplicate for the compounds analyzed.

SMILES strings stand for the structures.

The values that follow come from article PMC9923736, “Optimized Ebselen-Based Inhibitors of Bacterial Ureases with Nontypical Mode of Action” (Journal of Medicinal Chemistry, 2023).

Sequence of Sporosarcina pasteurii urease (P41020 whole entry, looked up): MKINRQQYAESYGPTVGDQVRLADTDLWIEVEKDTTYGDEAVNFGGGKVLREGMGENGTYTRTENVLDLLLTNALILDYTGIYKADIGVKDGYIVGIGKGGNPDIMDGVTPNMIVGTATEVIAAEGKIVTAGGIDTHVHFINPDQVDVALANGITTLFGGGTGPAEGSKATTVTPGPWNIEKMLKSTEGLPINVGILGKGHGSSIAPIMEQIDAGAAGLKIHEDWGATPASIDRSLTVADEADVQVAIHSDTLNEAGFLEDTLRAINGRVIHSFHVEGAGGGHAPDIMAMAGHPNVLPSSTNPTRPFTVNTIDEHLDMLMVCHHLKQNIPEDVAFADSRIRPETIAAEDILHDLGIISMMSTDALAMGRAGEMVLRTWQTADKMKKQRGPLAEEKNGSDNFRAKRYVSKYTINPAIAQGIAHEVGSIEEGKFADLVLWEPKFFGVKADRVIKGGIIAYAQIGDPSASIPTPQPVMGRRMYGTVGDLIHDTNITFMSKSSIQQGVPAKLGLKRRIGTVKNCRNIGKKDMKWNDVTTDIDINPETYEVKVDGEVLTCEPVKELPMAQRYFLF

`O=c1c2ccccc2[se]n1-c1ccccc1` [compound 1, 2-phenyl-1,2-benzisoselenazol-3(2H)-one]: the IC50 was 2430 nM in assay [1], 29.2 ± 3.1 nM in assay [2], 360 nM at glutamate dehydrogenase and 1000 nM in assay [3]. Moreover, the Ki at histone deacetylases is 80 to 4420 nM; on antigen 85 complex it was 63 nM.
Take `Cc1ccccc1-n1[se]c2ccccc2c1=O` [compound 30, 2-(2-Methylphenyl)-1,2-benzisoselenazol-3(2H)-one]: the IC90 in assay [4] was 121 ± 13 nM. The IC50 in assay [2] amounted to 25 ± 2 nM. In assay [5], this compound displayed a Ki of 3.56 ± 0.32 nM.
The corresponding values for `O=c1c2ccccc2[se]n1-c1ccccc1F` [compound 31, 2-(2-Fluorophenyl)-1,2-benzisoselenazol-3(2H)-one] are 34.7 ± 2.7 nM, 7.48 ± 0.67 nM and 0.974 ± 0.089 nM.
The corresponding values for `O=c1c2ccccc2[se]n1-c1ccccc1Cl` [compound 32, 2-(2-Chlorophenyl)-1,2-benzisoselenazol-3(2H)-one] are 87.7 ± 8.3 nM, 13.6 ± 1.5 nM and 13.7 ± 0.96 nM.
`O=c1c2ccccc2[se]n1-c1ccccc1Br` [compound 33, 2-(2-Bromophenyl)-1,2-benzisoselenazol-3(2H)-one]: the IC90 in assay [4] worked out at 543 ± 26 nM. In assay [2], the IC50 was 26.9 ± 2.8 nM. For the same compound, the affinity in assay [5], expressed as Ki, was 6.79 ± 0.53 nM.
As to `O=c1c2ccccc2[se]n1-c1ccccc1O` [compound 34, 2-(2-Hydroxyphenyl)-1,2-benzisoselenazol-3(2H)-one], the IC90 in assay [4] turned out to be 148 ± 6 nM. In addition, the IC50 in assay [2] is 16.8 ± 1.4 nM. Further, the affinity in assay [5] corresponds to a Ki of 1.42 ± 0.14 nM.
The matching figures for `COc1ccccc1-n1[se]c2ccccc2c1=O` [compound 35, 2-(2-Methoxyphenyl)-1,2-benzisoselenazol-3(2H)-one]: 18.8 ± 2.4 nM, 4.19 ± 0.45 nM and 5.36 ± 0.43 nM.
On to `O=c1c2ccccc2[se]n1-c1cccc(F)c1` [compound 36, 2-(3-Fluorophenyl)-1,2-benzisoselenazol-3(2H)-one], for which the IC90 in assay [4] is 223 ± 17 nM. The IC50 in assay [2] is 8.86 ± 0.81 nM. In assay [5], the Ki came out at 1.89 ± 0.16 nM.
As to `COc1cccc(-n2[se]c3ccccc3c2=O)c1` [compound 37, 2-(3-Methoxyphenyl)-1,2-benzisoselenazol-3(2H)-one], the IC90 in assay [4] is 53.8 ± 3.7 nM. Moreover, the IC50 in assay [2] was found to be 11.5 ± 1.3 nM. Besides, in assay [5], the affinity, expressed as Ki, was 1.07 ± 0.08 nM and the mechanism of inhibition result is on record as “Slow binding inhibition”.
In the case of `Cc1ccc(-n2[se]c3ccccc3c2=O)cc1` [compound 38, 2-(4-Methylphenyl)-1,2-benzisoselenazol-3(2H)-one], in assay [5], the Ki was found to be 4.04 ± 0.32 nM.
As to `O=c1c2ccccc2[se]n1-c1ccc(F)cc1` [compound 39, 2-(4-Fluorophenyl)-1,2-benzisoselenazol-3(2H)-one], the IC90 in assay [4] is 145 ± 17 nM. For the same compound, in assay [2], the IC50 was determined as 12.1 ± 1.4 nM. The Ki in assay [5] was 24.1 ± 2.6 nM.
The corresponding values for `O=c1c2ccccc2[se]n1-c1ccc(C(F)(F)F)cc1` [compound 40, 2-(4-Trifluoromethylphenyl)-1,2-benzisoselenazol-3(2H)-one] are 100 ± 14 nM, 16 ± 1.3 nM and 0.0363 ± 0.0039 nM.
The matching figures for `COc1ccc(-n2[se]c3ccccc3c2=O)cc1` [compound 41, 2-(4-Methoxyphenyl)-1,2-benzisoselenazol-3(2H)-one]: 180 ± 10 nM, 15.9 ± 1.1 nM and 44 ± 4.2 nM.
With `CCCCOc1ccc(-n2[se]c3ccccc3c2=O)cc1` [compound 42, 2-(4-n-Butoxyphenyl)-1,2-benzisoselenazol-3(2H)-one], the IC90 in assay [4] turned out to be 224 ± 15 nM. For the same compound, in assay [2], the IC50 amounted to 32.2 ± 3.8 nM. In addition, in assay [5], the Ki turned out to be 1.78 ± 0.18 nM and the mechanism of inhibition entry is “Slow binding inhibition”.
The corresponding values for `COc1ccc(-n2[se]c3ccccc3c2=O)c(C)c1` [compound 43, 2-(4-Methoxy-2-methylphenyl)-1,2-benzisoselenazol-3(2H)-one] are 148 ± 10 nM, 25.1 ± 2 nM, 7.3 ± 0.56 nM and “Slow binding inhibition”.
For `O=c1c2ccccc2[se]n1-c1ccc(F)cc1F` [compound 44, 2-(2,4-Difluorophenyl)-1,2-benzisoselenazol-3(2H)-one], the IC90 in assay [4] came to 130 ± 16 nM. For the same compound, the IC50 in assay [2] was 17 ± 1.8 nM. Affinity in assay [5] was put at a Ki of 0.0167 ± 0.0017 nM.
With `Cc1ccc(-n2[se]c3ccccc3c2=O)c(Cl)c1` [compound 46, 2-(2-Chloro-4-methylphenyl)-1,2-benzisoselenazol-3(2H)-one], the IC90 in assay [4] was 176 ± 12 nM. Also, in assay [2], the IC50 is 20 ± 1.7 nM. Moreover, the Ki in assay [5] stood at 3.26 ± 0.23 nM.
With `O=c1c2ccccc2[se]n1-c1ccc(F)cc1Cl` [compound 47, 2-(2-Chloro-4-fluorophenyl)-1,2-benzisoselenazol-3(2H)-one], the IC90 in assay [4] was 126 ± 8 nM. Besides, in assay [2], the IC50 was found to be 22.7 ± 2.5 nM. The compound further showed a Ki in assay [5] of 0.0058 ± 0.0004 nM.
In assay [5], `Cc1ccc(Cl)cc1-n1[se]c2ccccc2c1=O` [compound 48, 2-(5-Chloro-2-methylphenyl)-1,2-benzisoselenazol-3(2H)-one] came in with a Ki of 75.2 ± 6.2 nM.
As to `O=c1c2ccccc2[se]n1-c1cc(Cl)ccc1F` [compound 49, 2-(5-Chloro-2-fluorophenyl)-1,2-benzisoselenazol-3(2H)-one], the IC90 in assay [4] amounted to 151 ± 20 nM. In addition, the IC50 in assay [2] was 11.8 ± 1 nM. Further, the Ki in assay [5] stood at 0.0135 ± 0.0014 nM.
The matching figures for `Cc1ccc(Cl)c(-n2[se]c3ccccc3c2=O)c1` [compound 50, 2-(2-Chloro-5-methylphenyl)-1,2-benzisoselenazol-3(2H)-one]: 243 ± 17 nM, 54 ± 2.7 nM and 1.63 ± 0.13 nM.
The corresponding values for `O=c1c2ccccc2[se]n1-c1cc(Cl)ccc1Cl` [compound 51, 2-(2,5-Dichlorophenyl)-1,2-benzisoselenazol-3(2H)-one] are 254 ± 14 nM, 21.2 ± 1.5 nM and 0.00885 nM.
As to `COc1ccc(C)cc1-n1[se]c2ccccc2c1=O` [compound 52, 2-(2-Methoxy-5-methylphenyl)-1,2-benzisoselenazol-3(2H)-one], the IC90 in assay [4] turned out to be 96.6 ± 8.1 nM. Also, the IC50 in assay [2] turned out to be 11.8 ± 1.6 nM. In addition, in assay [5], affinity was put at a Ki of 7.11 ± 0.56 nM and the mechanism of inhibition entry is on record as “Slow binding inhibition”.
`COc1ccc(Cl)cc1-n1[se]c2ccccc2c1=O` [compound 53, 2-(5-Chloro-2-methoxyphenyl)-1,2-benzisoselenazol-3(2H)-one]: in assay [4], the IC90 was found to be 82.2 ± 11.3 nM. Besides, the IC50 in assay [2] is 21.9 ± 1.7 nM. The same compound returned a Ki in assay [5] of 1.63 ± 0.12 nM.
On to `Cc1cc(-n2[se]c3ccccc3c2=O)ccc1Cl` [compound 54, 2-(4-Chloro-3-methylphenyl)-1,2-benzisoselenazol-3(2H)-one], for which the IC90 in assay [4] came to 124 ± 14 nM. The IC50 in assay [2] was determined as 23.8 ± 2 nM. The compound further returned a Ki in assay [5] of 2.45 ± 0.16 nM.
